Reference: ChEMBL document CHEMBL3612028, “Design, synthesis, pharmacological evaluation and molecular dynamics of β-amino acids morphan-derivatives as novel ligands for opioid receptors” (Eur J Med Chem, 2015)

Tests used:
[1] = Displacement of [3H]-diprenorphine from opioid receptor in rat brain membrane homogenates after 1 hr by liquid scintillation counting; assay type: cell membranes
[2] = target: Mu opioid receptor-like OR2 (Danio rerio, UniProt B8JHS2); experiment: Displacement of [3H]-diprenorphine from zebrafish mu opioid receptor expressed in HEK293 cells after 1 hr by liquid scintillation counting; assay type: cell-based
Chain of Mu opioid receptor-like OR2 (B8JHS2 whole entry): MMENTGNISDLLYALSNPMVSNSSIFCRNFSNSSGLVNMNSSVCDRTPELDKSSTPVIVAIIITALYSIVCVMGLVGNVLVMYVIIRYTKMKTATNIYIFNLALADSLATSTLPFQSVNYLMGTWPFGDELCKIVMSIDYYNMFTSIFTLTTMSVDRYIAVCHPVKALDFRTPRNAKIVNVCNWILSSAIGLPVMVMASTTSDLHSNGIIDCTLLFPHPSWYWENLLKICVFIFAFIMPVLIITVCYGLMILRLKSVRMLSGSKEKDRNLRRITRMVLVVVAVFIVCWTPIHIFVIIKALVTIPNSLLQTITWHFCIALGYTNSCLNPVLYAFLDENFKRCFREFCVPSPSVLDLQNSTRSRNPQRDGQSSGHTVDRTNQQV

SMILES: O=C(O)[C@@H]1[C@@H]2CCC[C@H]1NCC2
- Ki [1]: > 100 µM

SMILES: COC(=O)[C@@H]1[C@@H]2CCC[C@H]1NCC2
- Ki [2]: 35.3 µM
- Ki [1]: 17.1 µM

SMILES: COC(=O)[C@@H]1[C@@H]2CCC[C@H]1N(Cc1ccccc1)CC2
- Ki [2]: 37 µM
- Ki [1]: 14.8 µM

SMILES: O=C(Oc1ccccc1)[C@@H]1[C@@H]2CCC[C@H]1NCC2
- Ki [2]: 32 µM
- Ki [1]: 10.9 µM

SMILES: COC(=O)[C@@H]1[C@@H]2CCC[C@H]1N(CCc1ccccc1)CC2
- Ki [2]: 8.24 µM
- Ki [1]: 2.69 µM

SMILES: O=C(Oc1cccc(O)c1)[C@@H]1[C@@H]2CCC[C@H]1NCC2
- Ki [2]: 9.52 µM
- Ki [1]: 4.04 µM

SMILES: O=C(Oc1ccc(O)cc1)[C@@H]1[C@@H]2CCC[C@H]1NCC2
- Ki [2]: 12.7 µM
- Ki [1]: 1.92 µM

SMILES: COC(=O)[C@H](Cc1ccccc1)NC(=O)[C@@H]1[C@@H]2CCC[C@H]1NCC2
- Ki [2]: 78 µM
- Ki [1]: 14.8 µM

SMILES: COC(=O)[C@@H]1[C@@H]2CCC[C@H]1N(C(=O)[C@@H](N)Cc1ccccc1)CC2
- Ki [2]: 75.8 µM
- Ki [1]: 32.9 µM
